Experimental data reported in PMC6030159 (Scientific Reports, 2018).

How the values were obtained:
MAX:MXD1(MAD1) = system: T1, MAX:MXD1(MAD1); assay: GLuc MAD:MAX in COS-7 cells; assay type: cell-based; settings: 12.5 µM
T1 construct: full-length MXD1(MAD1) or full-length MAX cDNA; expressed in transfected cells; host or cells: COS-7
Protocol: The protein fragment complementation assay using the Gaussia luciferase has been described. 0.2–0.4 μg of each GLuc-construct (see Supplementary Information) together with 0.05–0.2 μg pCMV-Luc (Firefly luciferase) were transiently transfected into HEK293 or COS-7 cells in 6-well plates. 24 hours later cells were treated with compound (10–25 μM) or DMSO. After another 17 hours, the cells were harvested and lyzed in passive lysis buffer (Promega) supplemented with complete protease inhibitor (Roche). After 60 min incubation at room temperature 20 μM D-luciferin was added (substrate of Firefly luciferase) and luminescence was measured in a Lumat LB9501 (Berthold) or OmegaFluostar (BMG Labtech) luminometer. Directly after, Gaussia luciferase substrate Coelenterazine (Promega) was added to a final concentration of 20 μM in a mixture with “Stop n’ Glow” (Promega) and the luciferase activity was measured. The ratio between Gaussia and Firefly luciferase values were calculated and normalized to DMSO-treated control cells.
Supplementary Figure Legends
Supplemental Figure S1. Schematic presentations of MYC and MAX protein constructs. A) BiFC constructs MYC-YFP-N and MAX-YFP-C, containing full-length MYC and MAX fused with N-terminal and C-terminal fragments of yellow fluorescent protein (YFP), respectively 3.
In the MYC deletion mutant MYCΔbHLHZip-YFP-N, the bHLHZip domain, residues 352-432, has been truncated 3. B) Gaussia princeps Luciferase (GLuc) constructs MYC-GLuc-C and MAX-GLuc-N, containing full-length MYC and MAX fused with N-terminal and C-terminal fragments of GLuc, respectively. MYC was truncated at residue 411-432 in order to produce the deletion mutant MYCΔZ ip-GLuc-C. […]
Supplemental Figure S2. […] The cells were reseeded and treated with vehicle or 25 µM of each compound, after which fluorescence was measured 24 hours post-treatment and the YFP/CFP ratio calculated and normalized to DMSO-treated cells.
B) MAD:MAX GLuc assay. MAD-GLuc-C and MAX-GLuc-N constructs were cotransfected into COS-7 cells together with CMV-Luc and treated with MYCMIs (12.5 µM) and analyzed […]

FRA1:JUN = system: T2, FRA1:JUN; assay: isPLA endogenous FRA1:JUN; assay type: cell-based, human; settings: 10 μM
T2 construct: endogenous in cells
Protocol: The isPLA assay has been described. Antibodies used are listed in Supplementary Information. Briefly, cells were grown on collagen-coated chamber slides (Falcon), and treated with 1–10 μM of compounds, respectively, for 16 hours, then washed twice with PBS and fixed in ice cold methanol for 5–15 min at room temperature. Slides were washed in PBS with 0.05% Tween 20 and incubated in blocking buffer after which isPLA was performed using the Duolink® in situ PLA kit (Sigma-Aldrich) according to the manufacturer’s protocol. DNA was stained with DAPI. Incubation with primary antibodies were performed at +4 °C overnight. Images were taken using an Axiovert 200M inverted microscope (Zeiss) and fluorescent dots were quantified using semi-automated analysis in ImageJ (http://imagej.net) and averaged to number of dots per cell.

[1] = system: MYC-driven transcription (ODC1, RSG16, CR2); assay: RT-qPCR of MYC target genes in U2OS-MYC-ER cells; assay type: cell-based; settings: 10 μM, 24 hours
Protocol: To investigate the effect of the compounds on MYC-driven transcription, we utilized U2OS cells expressing a MYC-estrogen receptor (MYC-ER) fusion protein, the activity of which is regulated by the ligand 4-hydroxytamoxifen (HOT)[43].
These assays were performed essentially as described in[67],[68]. For further information on immunohistochemistry, and on primers and antibodies, see Supplementary Information.

SK-N-DZ cells = assay: Anchorage-independent growth in agarose; assay type: cell-based; settings: Homo sapiens, 384 h, 0.35% agarose, 16 days
Protocol: Triton-X-114 (Sigma). Truncated p53 core protein was a kind gift from Klas Wiman, CCK, […]
Cell proliferation assays. Cell growth and viability was estimated in triplicates with WST-1 (Roche) or Resazurin sodium salt (Sigma-Aldrich) assays in medium at 37°C and 5% CO 2 for 2 hours after which absorbance or fluorescence, respectively, was measured with an Omega Fluostar (BMG Labtech) in a 96 well plate format. Cell counting was done in 96 well plates with CellTracker Green (ThermoFisher) for 30 min in the incubator, after which DAPI was added for 5 min. Images were taken in the green (FITC) and blue (DAPI) channels using a fluorescence microscope (ImageXpress Micro, Molecular Devices). For anchorage-independent growth assay, cells were suspended in 250 µl 0.35% SeaPlaque agarose (InVitro) and seeded into 24 well plates which had previously been coated with a bottom layer of 250 µl 0.7% agarose. After 16 days, the colonies were stained with 100 µg/ml MTT (Sigma) overnight and colonies were counted.
Immunohistochemistry. Apoptosis was visualized at the single-cell level on tumor cryosections using the TUNEL method using the In Situ Cell Death Detection Fluorescein-Roche kit and analyzed by fluorescence microscopy. Briefly, tumor cryosections were fixed in 4% paraformaldyde (PFA) and the assay was performed following the instructions from the manufacturer. Negative controls were run using the reagent without the TdT enzyme. Samples were mounted using Vectashield mounting medium (Vector) and DAPI was used as nuclear counterstaining. Cell proliferation and microvascular density (MVD) were evaluated through Ki67 and CD31staining, respectively, on tumor cryosections and detected by immunofluoresence. Visualization and image acquisition was done in a Zeiss microscope, and for panoramic views by a Vectra imaging system. For quantification, areas with positive TUNEL and Ki67 staining were measured using Image J software. For the analysis of MVD, the number of vessel structures per microscopic field was calculated.

| SMILES | effect on MAX:MXD1(MAD1) interaction (GLuc) (MAX:MXD1(MAD1)) | effect on FRA1:JUN interaction (isPLA) (FRA1:JUN) | HOT-induced expression of MYC target genes ODC1, RSG16 and CR2 [1] | GI50 (SK-N-DZ cells) [µM] |
| --- | --- | --- | --- | --- |
| CCOc1ccc2nc3cc(/N=N/c4ccc(N)nc4N)ccc3c(N)c2c1 [MYCMI-6] | did not significantly affect | did not significantly affect | significantly reduced | < 0.4 |
| CCCCN(c1ccccc1)c1ncnc2c1cnn2C [MYCMI-11] | did not significantly affect | did not significantly affect | reduced expression of the genes to a lesser extent | 5 |
| O=C(O)/C=C/C(=O)Nc1cccc2c1-c1ccccc1C2=O [MYCMI-14] | did not significantly affect | did not significantly affect | reduced expression of the genes to a lesser extent | 0.75 |
